Here are results for four compounds from patent US10131649B2, “Bicyclic compounds as pest control agents” (BAYER CROPSCIENCE AKTIENGESELLSCHAFT, priority 2014, dated 2018).

Read-outs that look alike come from different tables or passages of the source.

In series [1] the test system is caterpillars of the armyworm (Spodoptera frugiperda). Put plainly: Spodoptera frugiperda spray test. It counts as in vivo. Conditions: application rate 500 g/ha; after 7 days; maize leaf discs; 100% = all caterpillars killed. On the procedure:
Spodoptera frugiperda—Spray Test
(§1) Solvent: • 78.0 parts by weight of acetone • 1.5 parts by weight of dimethylformamide
(§2) Emulsifier: alkylaryl polyglycol ether
(§3) To produce a suitable preparation of active compound, 1 part by weight of active compound is dissolved using the specified parts by weight of solvent and made up with water containing an emulsifier concentration of 1000 ppm until the desired concentration is attained. To produce further test concentrations, the formulation is diluted with emulsifier-containing water.
Leaf discs of maize (Zea mays) are sprayed with an active compound formulation of the desired concentration and, after drying, populated with caterpillars of the armyworm (Spodoptera frugiperda).
After 7 days, the efficacy in % is determined. 100% means that all the caterpillars have been killed; 0% means that no caterpillar has been killed.

In series [2] the test system is larvae of the mustard beetle (Phaedon cochleariae). Put plainly: Phaedon cochleariae spray test. It is filed as in vivo. The following applies: application rate 500 g/ha; after 7 days; 100% = all beetle larvae killed. On the procedure:
Phaedon cochleariae—Spray Test
as §1, §2, §3
Discs of Chinese cabbage leaves (Brassica pekinensis) are sprayed with an active compound preparation of the desired concentration and, after drying, populated with larvae of the mustard beetle (Phaedon cochleariae).
After 7 days, the efficacy in % is determined. 100% means that all the beetle larvae have been killed; 0% means that no beetle larvae have been killed.

For series [3], the system named is green peach aphid (Myzus persicae). The series can be described thus: Myzus persicae spray test (Chinese cabbage leaf discs). It is filed as in vivo. Conditions: foliar, 144 h, read-out: efficacy in %. On the procedure:
(§4) Myzus persicae—Spray Test
Solvent: • 78 parts by weight of acetone • 1.5 parts by weight of dimethylformamide
as §2, §3
Discs of Chinese cabbage leaves (Brassica pekinensis) infested by all stages of the green peach aphid (Myzus persicae) are sprayed with an active compound formulation of the desired concentration.
After 6 days, the efficacy in % is determined. 100% means that all the aphids have been killed; 0% means that no aphids have been killed.

A short description of series [4]: log P by HPLC on reversed-phase columns (OECD Guideline 117), [a] acidic pH 2.7, [b] neutral pH 7.8. It is filed as physicochemical. The following applies: reversed-phase (C18) HPLC column. The protocol:
The log P values were determined in accordance with OECD Guideline 117 (EC Directive 92/69/EEC) by HPLC (high-performance liquid chromatography) using reversed-phase (RP) columns (C18), by the following methods:
[a] The LC-MS determination in the acidic range is carried out at pH 2.7 with 0.1% aqueous formic acid and acetonitrile (contains 0.1% formic acid) as eluents; linear gradient from 10% acetonitrile to 95% acetonitrile.
[b] LC-MS determination in the neutral range is effected at pH 7.8 with 0.001 molar aqueous ammonium hydrogencarbonate solution and acetonitrile as eluents; linear gradient from 10% acetonitrile to 95% acetonitrile.
Calibration is carried out using unbranched alkan-2-ones (having 3 to 16 carbon atoms) with known log P values (log P values determined on the basis of the retention times by linear interpolation between two successive alkanones).

Series [5] relates to green peach aphid (Myzus persicae). Put plainly: Myzus persicae spray test (bell pepper plants). It is filed as in vivo. The following applies: application rate 4 ppm, after 6 days, 100% = all aphids killed. On the procedure:
as §4
Solvent: 7 parts by weight of dimethylformamide
as §2
To produce a suitable preparation of active compound, 1 part by weight of active compound is dissolved using the specified parts by weight of solvent and made up with water containing an emulsifier concentration of 1000 ppm until the desired concentration is attained. To produce further test concentrations, the formulation is diluted with emulsifier-containing water. If the addition of ammonium salts or/and penetrants is required, these are each added in a concentration of 1000 ppm to the formulation solution.
Bell pepper plants (Capsicum annuum) severely infested with the green peach aphid (Myzus persicae) are treated by spraying with the active compound formulation in the desired concentration.
After 6 days, the kill in % is determined. 100% means that all of the aphids have been killed; 0% means that none of the aphids have been killed.

The subject of series [6] is greenhouse red spider mite (Tetranychus urticae). Put plainly: Tetranychus urticae spray test, OP-resistant. It counts as in vivo. The following applies: application rate 500 g/ha; after 6 days; bean leaf discs; 100% = all spider mites killed. On the procedure:
Tetranychus urticae—Spray Test, OP-Resistant
as §1, §2, §3
Discs of bean leaves (Phaseolus vulgaris) infested with all stages of the greenhouse red spider mite (Tetranychus urticae) are sprayed with an active compound formulation of the desired concentration.
After 6 days, the efficacy in % is determined. 100% means that all the spider mites have been killed; 0% means that no spider mites have been killed.

In series [7] the test system is engorged adult female cattle ticks (Boophilus microplus). Put plainly: Boophilus microplus injection test. It is filed as in vivo. Conditions: application rate 20 μg/animal, assessed after 7 days, 100% = no tick laid fertile eggs. The protocol:
Boophilus microplus—Injection Test
Solvent: dimethyl sulphoxide
To produce a suitable preparation of active compound, 10 mg of active compound are mixed with 0.5 ml of solvent and the concentrate is diluted with solvent to the desired concentration.
1 μl of the active compound solution is injected into the abdomen of 5 engorged adult female cattle ticks (Boophilus microplus). The animals are transferred into dishes and kept in a climate-controlled room.
Efficacy is assessed after 7 days by laying of fertile eggs. Eggs which are not externally visibly fertile are stored in a climate-controlled cabinet until the larvae hatch after about 42 days. An efficacy of 100% means that none of the ticks has laid any fertile eggs; 0% means that all the eggs are fertile.

Setting [8] is: acidic pH 2.7, read-out: logP[a].
The mark [9] stands for this setting: neutral pH 7.8, read-out: logP[b].

Consider `CN(C)C(=O)c1ccc2nn(-c3cnn(C)c3)cc2c1` [Example 38], for which the efficacy in % in series [1] and in series [2] was 100% throughout.

In the case of `Cc1cc(C)c(-c2ccc3nn(-c4cccnc4)cc3c2)cc1SCC(F)(F)F` [Example 51, 5-[2,4-Dimethyl-5-(2,2,2-trifluoroethylsulphanyl)phenyl]-2-(3-pyridyl)indazole], in series [3], the pest or weed control at 500 g/ha stood at 90%. For the same compound, the chromatographic logP in series [4] (setting [8]) amounted to 4.42; in series [4] (setting [9]), 4.4. In addition, the “efficacy (kill in %)” value in series [5] is reported as 100%.

The compound `Cc1cc(F)c(C(=O)N(C)c2ccc3nn(-c4cnn(C)c4)cc3c2)cc1[S+]([O-])CC(F)(F)F` (centres unmarked) [Example 117] returned an efficacy in % in series [6] of 90%.

On to `Cc1cc(F)c(-c2ccc3nn(-c4cccnc4)cc3c2)cc1[S+]([O-])CC(F)(F)F` (centres unmarked) [Example 52, 5-[2-Fluoro-4-methyl-5-(2,2,2-trifluoroethylsulphinyl)phenyl]-2-(3-pyridyl)indazole], for which, in series [3], the pest or weed control at 500 g/ha was determined as 100%. The chromatographic logP in series [4] (setting [8]) amounted to 2.8; in series [4] (setting [9]) it was 2.74. Further, the “efficacy (laying of fertile eggs)” value in series [7] is recorded as 100%.
